{"source": "ChEMBL document CHEMBL6083210", "about": "“Exploring apoptotic induction of malabaricone A in triple-negative breast cancer cells: an acylphenol phyto-entity isolated from the fruit rind of Myristica malabarica Lam” (RSC Med Chem, 2024)", "key": {"[1]": {"tested_on": "MDA-MB-231", "experiment": "Induction of DNA fragmentation in human MDA-MB-231 cells assessed as appearance of ladder-like pattern at 6 to 10 uM", "format": "functional, cell-based", "settings": "dose 6-10 µM"}, "[2]": {"tested_on": "MDA-MB-231", "experiment": "Upregulation of Bad protein level in human MDA-MB-231 cells at 8 uM measured after 24 hrs", "format": "functional, cell-based"}, "[3]": {"tested_on": "MDA-MB-231", "experiment": "Upregulation of Bax protein level in human MDA-MB-231 cells at 8 uM measured after 24 hrs", "format": "functional, cell-based"}, "[4]": {"tested_on": "MDA-MB-231", "experiment": "Upregulation of Bid protein level in human MDA-MB-231 cells at 8 uM measured after 24 hrs", "format": "functional, cell-based"}, "[5]": {"tested_on": "MDA-MB-231", "experiment": "Upregulation of caspase 3 protein level in human MDA-MB-231 cells at 8 uM measured after 24 hrs", "format": "functional, cell-based"}, "[6]": {"tested_on": "MDA-MB-231", "experiment": "Upregulation of caspase 8 protein level in human MDA-MB-231 cells at 8 uM measured after 24 hrs", "format": "functional, cell-based"}, "[7]": {"tested_on": "MDA-MB-231", "experiment": "Downregulation of cIAP-2 protein level in human MDA-MB-231 cells at 8 uM measured after 24 hrs", "format": "functional, cell-based"}, "[8]": {"tested_on": "MDA-MB-231", "experiment": "Upregulation of Fas protein level in human MDA-MB-231 cells at 8 uM measured after 24 hrs", "format": "functional, cell-based"}, "[9]": {"tested_on": "MDA-MB-231", "experiment": "Upregulation of FasL protein level in human MDA-MB-231 cells at 8 uM measured after 24 hrs", "format": "functional, cell-based"}, "[10]": {"tested_on": "MDA-MB-231", "experiment": "Upregulation of HTRA protein level in human MDA-MB-231 cells at 8 uM measured after 24 hrs", "format": "functional, cell-based"}, "[11]": {"tested_on": "MDA-MB-231", "experiment": "Upregulation of p53 protein level in human MDA-MB-231 cells at 8 uM measured after 24 hrs", "format": "functional, cell-based"}, "[12]": {"tested_on": "MDA-MB-231", "experiment": "Downregulation of livin protein level in human MDA-MB-231 cells at 8 uM measured after 24 hrs", "format": "functional, cell-based"}, "[13]": {"tested_on": "MDA-MB-231", "experiment": "Upregulation of Smac protein level in human MDA-MB-231 cells at 8 uM measured after 24 hrs", "format": "functional, cell-based"}, "[14]": {"tested_on": "MDA-MB-231", "experiment": "Upregulation of TNF-R1 protein level in human MDA-MB-231 cells at 8 uM measured after 24 hrs", "format": "functional, cell-based"}, "[15]": {"tested_on": "MDA-MB-231", "experiment": "Upregulation of TNF-alpha protein level in human MDA-MB-231 cells at 8 uM measured after 24 hrs", "format": "functional, cell-based"}, "[16]": {"tested_on": "MDA-MB-231", "experiment": "Upregulation of TNF-beta protein level in human MDA-MB-231 cells at 8 uM measured after 24 hrs", "format": "functional, cell-based"}, "[17]": {"tested_on": "MDA-MB-231", "experiment": "Downregulation of XIAP protein level in human MDA-MB-231 cells at 8 uM measured after 24 hrs", "format": "functional, cell-based"}, "[18]": {"tested_on": "MDA-MB-231", "experiment": "Induction of cell cycle arrest in human MDA-MB-231 cells assessed as accumulation of cells at Sub G0 phase at 6 uM incubated for 24 hrs by PI staining based flow cytometry analysis (reference value: 5.3%)", "format": "functional"}, "[19]": {"tested_on": "MDA-MB-231", "experiment": "Induction of cell cycle arrest in human MDA-MB-231 cells assessed as accumulation of cells at Sub G0 phase at 8 uM incubated for 24 hrs by PI staining based flow cytometry analysis (reference value: 5.3%)", "format": "functional"}, "[20]": {"tested_on": "MDA-MB-231", "experiment": "Induction of cell cycle arrest in human MDA-MB-231 cells assessed as accumulation of cells at G1 phase at 6 uM incubated for 24 hrs by PI staining based flow cytometry analysis (reference value: 74.2%)", "format": "functional"}, "[21]": {"tested_on": "MDA-MB-231", "experiment": "Induction of cell cycle arrest in human MDA-MB-231 cells assessed as accumulation of cells at G1 phase at 8 uM incubated for 24 hrs by PI staining based flow cytometry analysis (reference value: 74.2%)", "format": "functional"}, "[22]": {"tested_on": "MDA-MB-231", "experiment": "Induction of cell cycle arrest in human MDA-MB-231 cells assessed as accumulation of cells at S phase at 6 uM incubated for 24 hrs by PI staining based flow cytometry analysis (reference value: 12.0%)", "format": "functional"}, "[23]": {"tested_on": "MDA-MB-231", "experiment": "Induction of cell cycle arrest in human MDA-MB-231 cells assessed as accumulation of cells at S phase at 8 uM incubated for 24 hrs by PI staining based flow cytometry analysis (reference value: 12.0%)", "format": "functional"}, "[24]": {"tested_on": "MDA-MB-231", "experiment": "Induction of cell cycle arrest in human MDA-MB-231 cells assessed as accumulation of cells at G2 phase at 6 uM incubated for 24 hrs by PI staining based flow cytometry analysis (reference value: 7.9%)", "format": "functional"}, "[25]": {"tested_on": "MDA-MB-231", "experiment": "Induction of cell cycle arrest in human MDA-MB-231 cells assessed as accumulation of cells at G2 phase at 8 uM incubated for 24 hrs by PI staining based flow cytometry analysis (reference value: 7.9%)", "format": "functional"}, "[26]": {"tested_on": "MDA-MB-231", "experiment": "Downregulation of cyclin A2 level in human MDA-MB-231 cells at 6 to 10 uM by Western blot analysis", "format": "functional, cell-based", "settings": "dose 6-10 µM"}, "[27]": {"tested_on": "MDA-MB-231", "experiment": "Downregulation of cyclin B1 level in human MDA-MB-231 cells at 6 to 10 uM by Western blot analysis", "format": "functional, cell-based", "settings": "dose 6-10 µM"}, "[28]": {"tested_on": "MDA-MB-231", "experiment": "Downregulation of Cdk2 level in human MDA-MB-231 cells at 6 to 10 uM by Western blot analysis", "format": "functional, cell-based", "settings": "dose 6-10 µM"}, "[29]": {"tested_on": "MDA-MB-231", "experiment": "Downregulation of Cdc25c level in human MDA-MB-231 cells at 6 to 10 uM by Western blot analysis", "format": "functional, cell-based", "settings": "dose 6-10 µM"}}, "note": "Active and inactive are the calls of the source. The calls are words filed in the database; no cut-off is given here.", "data": [{"smiles": "O=C(CCCCCCCCc1ccccc1)c1c(O)cccc1O", "note": "[MALABARICONE A]", "values": [{"measurement": "Activity", "setting": "[1]", "result": "Active"}, {"measurement": "Activity", "setting": "[2]", "result": "Active"}, {"measurement": "Activity", "setting": "[3]", "result": "Active"}, {"measurement": "Activity", "setting": "[4]", "result": "Active"}, {"measurement": "Activity", "setting": "[5]", "result": "Active"}, {"measurement": "Activity", "setting": "[6]", "result": "Active"}, {"measurement": "Activity", "setting": "[7]", "result": "Active"}, {"measurement": "Activity", "setting": "[8]", "result": "Active"}, {"measurement": "Activity", "setting": "[9]", "result": "Active"}, {"measurement": "Activity", "setting": "[10]", "result": "Active"}, {"measurement": "Activity", "setting": "[11]", "result": "Active"}, {"measurement": "Activity", "setting": "[12]", "result": "Active"}, {"measurement": "Activity", "setting": "[13]", "result": "Active"}, {"measurement": "Activity", "setting": "[14]", "result": "Active"}, {"measurement": "Activity", "setting": "[15]", "result": "Active"}, {"measurement": "Activity", "setting": "[16]", "result": "Active"}, {"measurement": "Activity", "setting": "[17]", "result": "Active"}, {"measurement": "Activity", "setting": "[18]", "result": 48.7, "unit": "%"}, {"measurement": "Activity", "setting": "[19]", "result": 59.7, "unit": "%"}, {"measurement": "Activity", "setting": "[20]", "result": 36.8, "unit": "%"}, {"measurement": "Activity", "setting": "[21]", "result": 27.5, "unit": "%"}, {"measurement": "Activity", "setting": "[22]", "result": 9.7, "unit": "%"}, {"measurement": "Activity", "setting": "[23]", "result": 9.1, "unit": "%"}, {"measurement": "Activity", "setting": "[24]", "result": 3.9, "unit": "%"}, {"measurement": "Activity", "setting": "[25]", "result": 2.9, "unit": "%"}, {"measurement": "Activity", "setting": "[26]", "result": "Active"}, {"measurement": "Activity", "setting": "[27]", "result": "Active"}, {"measurement": "Activity", "setting": "[28]", "result": "Active"}, {"measurement": "Activity", "setting": "[29]", "result": "Active"}]}]}
